Test results reported in article PMC6844396, “Design, synthesis and biological evaluation of novel 1H-1,2,4-triazole, benzothiazole and indazole-based derivatives as potent FGFR1 inhibitors viafragment-based virtual screening” (Journal of Enzyme Inhibition and Medicinal Chemistry, 2019).

Key:
FGFR1 = FGFR1 (Homo sapiens, UniProt P11362); test: ELISA kinase assay, FGFR1; type: biochemical; settings: ELISA; average values from two separate experiments
Method: Elisa kinase assay. The effects of the indicated compounds on the activities of receptor tyrosine kinases were determined using enzyme-linked immunosorbent assays (ELISAs) with purified recombinant proteins. Briefly, 20 μg/mL poly (Glu,Tyr)4:1 (Sigma, St Louis, MO, USA) was pre-coated in 96-well plates as a substrate. A 50 μL aliquot of 10 μmol/L ATP solution diluted in kinase reaction buffer (50 mmol/L HEPES [pH 7.4], 50 mmol/L MgCl2, 0.5 mmol/L MnCl2, 0.2 mmol/L Na3VO4, and 1 mmol/L DTT) was added to each well; 1 μL of different compounds with indicated concentration diluted in 1% DMSO (v/v) (Sigma, St Louis, MO, USA) were then added to each reaction well. DMSO (1%, v/v) was used as the negative control. The kinase reaction was initiated by the addition of purified tyrosine kinase proteins (FGFR1, FGFR2, FGFR3, FGFR4, ALK, Bcr-Abl, EPH-A2, Flt-1, RET, c-Src, IGF1R, c-Met, EGFR, ErbB2) diluted in 49 μL of kinase reaction buffer solution. After incubation for 60 min at 37 °C, the plate was washed three times with phosphate-buffered saline (PBS) containing 0.1% Tween 20 (T-PBS). Anti-phosphotyrosine (PY99) antibody (100 μL; 1:500, diluted in 5 mg/mL BSA T-PBS) was then added. After a 30 min incubation at 37 °C, the plate was washed three times, and 100 μL horseradish peroxidase-conjugated goat anti-mouse IgG (1:2000, diluted in 5 mg/mL BSA T-PBS) was added. The plate was then incubated at 37 °C for 30 min and washed 3 times. A 100 μL aliquot of a solution containing 0.03% H2O2 and 2 mg/mL o-phenylenediamine in 0.1 mol/l citrate buffer (pH 5.5) was added. The reaction was terminated by the addition of 50 μL of 2 mol/l H2SO4 as the colour changed, and the plate was analysed using a multi-well spectrophotometer (SpectraMAX 190, Molecular Devices, Sunnyvale, CA, USA) at 490 nm. The inhibition rate (%) was calculated using the following equation: [1-(A490/A490 control)] × 100%. The IC50 values were calculated from the inhibition curves in two separate experiments.

SNU-16 cell = test: Cell proliferation assay (CCK-8 or MTT), SNU-16; type: cell-based, Human; settings: for IC50: SNU-16 is FGFR2-amplified cell type, 72 h
Method: Human gastric cancer cell line SNU-16 was purchased from American Type Culture Collection (ATCC, Manssas, VA, USA). All the cell lines were routinely maintained in complete medium according to the suppliers’ recommendations.
Cells were seeded in 96-well tissue culture plates. On the day when seeding, the cells were exposed to various concentrations of compounds and further cultured for 72 h at 37 °C. Finally, cell proliferation was determined using Cell Counting Kit (CCK-8) or the thiazolyl blue tetrazolium bromide (MTT, from Sigma-Aldrich, St. Louis, MO, USA) assay. The IC50 values were calculated by concentration–response curve fitting using a SoftMax pro-based four-parameter method.

FGFR1, sequence (P11362 22-822): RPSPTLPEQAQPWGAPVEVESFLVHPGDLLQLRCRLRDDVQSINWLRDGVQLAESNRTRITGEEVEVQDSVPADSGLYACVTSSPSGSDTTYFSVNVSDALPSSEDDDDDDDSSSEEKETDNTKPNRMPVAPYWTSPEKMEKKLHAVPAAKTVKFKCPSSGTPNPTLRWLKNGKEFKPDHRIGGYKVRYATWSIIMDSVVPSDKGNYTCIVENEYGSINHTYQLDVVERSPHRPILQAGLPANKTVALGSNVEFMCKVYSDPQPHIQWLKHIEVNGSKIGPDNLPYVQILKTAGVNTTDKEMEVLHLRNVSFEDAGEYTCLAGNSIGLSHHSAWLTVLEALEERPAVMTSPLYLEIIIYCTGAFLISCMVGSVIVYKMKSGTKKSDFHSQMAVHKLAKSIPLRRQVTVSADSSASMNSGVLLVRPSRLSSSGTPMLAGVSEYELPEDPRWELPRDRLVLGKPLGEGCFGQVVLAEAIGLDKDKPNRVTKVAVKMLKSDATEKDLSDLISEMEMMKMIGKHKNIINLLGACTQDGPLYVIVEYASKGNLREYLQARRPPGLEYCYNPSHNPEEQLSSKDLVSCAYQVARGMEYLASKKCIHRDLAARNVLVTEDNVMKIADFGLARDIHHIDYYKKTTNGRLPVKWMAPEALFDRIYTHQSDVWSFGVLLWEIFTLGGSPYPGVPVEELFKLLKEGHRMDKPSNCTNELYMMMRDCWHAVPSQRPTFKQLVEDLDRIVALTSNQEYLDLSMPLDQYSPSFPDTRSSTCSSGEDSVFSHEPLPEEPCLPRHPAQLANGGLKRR

IC50 (FGFR1) [nM] | IC50 (SNU-16 cell; Homo sapiens, Table 1) [nM] | melting point [°C] | IC50 (SNU-16 cell; Homo sapiens, Table 3) [nM] | IC50 (SNU-16 cell; Homo sapiens, Table 2) [nM] | Molecule | IC50 (SNU-16 cell; Table 1) [nM] | enhancement of the cellular inhibition (SNU-16 cell; 9o vs 9d, SNU-16) [fold]
> 1000 | > 5000 | 220.9 to 223.3 | – | – | COc1cc(CCc2nc(NC(=O)c3ccc(N4CCN(C)CC4)cc3)n[nH]2)cc(OC)c1 [18c, N-(5–(3,5-dimethoxyphenethyl)-1H-1,2,4-triazol-3-yl)-4–(4-methylpiperazin-1-yl)benzamide] | – | –
4.6 | – | 237.7 to 240.3 | 738 | – | COc1cc(F)cc(-c2ccc3c(NC(=O)c4cnc(N5CCN(C)CC5)cn4)n[nH]c3c2)c1 [9z, N-(6–(3-fluoro-5-methoxyphenyl)-1H-indazol-3-yl)-5–(4-methylpiperazin-1-yl)pyrazine-2-carboxamide] | – | –
9.8 | – | 227.9 to 231.7 | – | 1500 | CCN1CCN(c2ccc(C(=O)Nc3n[nH]c4cc(-c5cccc(OC(C)C)c5)ccc34)cc2)CC1 [9f, 4–(4-ethylpiperazin-1-yl)-N-(6–(3-isopropoxyphenyl)-1H-indazol-3-yl)benzamide] | – | –
> 1000 | – | 227.3 to 231.2 | – | > 5000 | CCN1CCN(c2ccc(C(=O)Nc3n[nH]c4cc(-c5ccc(C)c(OC)c5)ccc34)cc2)CC1 [9i, 4–(4-ethylpiperazin-1-yl)-N-(6–(3-methoxy-4-methylphenyl)-1H-indazol-3-yl) benzamide] | – | –
– | – | – | – | – | AZD4547 [reference compound] | 6.1 | –
> 1000 | > 5000 | 234.6 to 238.2 | – | – | COc1cc(OC)cc(-c2ccc3nc(NC(=O)c4ccc(N5CCN(C)CC5)cc4)sc3c2)c1 [12b, N-(6–(3,5-dimethoxyphenyl)benzo[d]thiazol-2-yl)-4–(4-methylpiperazin-1-yl) benzamide] | – | –
30.6 | 1200 | – | – | – | COc1cc(OC)cc(-c2ccc3c(NC(=O)c4ccc(N5C[C@@H](C)N[C@@H](C)C5)cc4)n[nH]c3c2)c1 [9a, N-(6–(3,5-dimethoxyphenyl)-1H-indazol-3-yl)-4-((3R,5S)-3,5-dimethylpiperazin-1-yl)benzamide] | – | –
44.8 | – | 220.1 to 222.4 | – | 1180 | CCN1CCN(c2ccc(C(=O)Nc3n[nH]c4cc(-c5cccc(Cl)c5Cl)ccc34)cc2)CC1 [9m, N-(6–(2,3-dichlorophenyl)-1H-indazol-3-yl)-4–(4-ethylpiperazin-1-yl)benzamide] | – | –
3.3 | – | 230.4 to 234.6 | 557 | – | COc1cc(F)cc(-c2ccc3c(NC(=O)c4ccc(N5CCCN(C)CC5)cc4)n[nH]c3c2)c1 [9w, N-(6–(3-fluoro-5-methoxyphenyl)-1H-indazol-3-yl)-4–(4-methyl-1,4-diazepan-1-yl)benzamide] | – | –
> 1000 | – | 224.9 to 228 | – | > 5000 | CCN1CCN(c2ccc(C(=O)Nc3n[nH]c4cc(-c5ccc(Cl)c(Cl)c5)ccc34)cc2)CC1 [9n, N-(6–(3,4-dichlorophenyl)-1H-indazol-3-yl)-4–(4-ethylpiperazin-1-yl)benzamide] | – | –
15 | 786 | – | – | – | CCN1CCN(c2ccc(C(=O)Nc3n[nH]c4cc(-c5cccc(OC)c5)ccc34)cc2)CC1 [9d, 4–(4-ethylpiperazin-1-yl)-N-(6–(3-methoxyphenyl)-1H-indazol-3-yl)benzamide] | – | –
> 1000 | – | 240.3 to 242.5 | > 5000 | – | COc1cc(F)cc(-c2ccc3c(NC(=O)c4ccc(CN5CCN(C)CC5)cc4)n[nH]c3c2)c1 [9x, N-(6–(3-fluoro-5-methoxyphenyl)-1H-indazol-3-yl)-4-((4-methylpiperazin-1-yl)methyl)benzamide] | – | –
> 1000 | – | – | – | – | N-(5–(3-methoxyphenethyl)-1H-1,2,4-triazol-3-yl)-4–(4-methylpiperazin-1-yl) benzamide [18b] | > 5000 | –
> 1000 | – | 230.9 to 233.5 | – | > 5000 | CCN1CCN(c2ccc(C(=O)Nc3n[nH]c4cc(-c5ccccc5OC(F)(F)F)ccc34)cc2)CC1 [9r, 4–(4-ethylpiperazin-1-yl)-N-(6–(2-(trifluoromethoxy)phenyl)-1H-indazol-3-yl)benzamide] | – | –
> 1000 | – | 227.9 to 232 | – | > 5000 | CCN1CCN(c2ccc(C(=O)Nc3n[nH]c4cc(-c5ccc(C(F)(F)F)cc5Cl)ccc34)cc2)CC1 [9p, N-(6–(2-chloro-4-(trifluoromethyl)phenyl)-1H-indazol-3-yl)-4–(4-ethylpiperazin-1-yl)benzamide] | – | –
> 1000 | – | 226.4 to 230 | – | > 5000 | CCN1CCN(c2ccc(C(=O)Nc3n[nH]c4cc(-c5ccc(C#N)cc5)ccc34)cc2)CC1 [9s, N-(6–(4-cyanophenyl)-1H-indazol-3-yl)-4–(4-ethylpiperazin-1-yl)benzamide] | – | –
10.2 | – | 237.4 to 241.6 | 639 | – | COc1cc(F)cc(-c2ccc3c(NC(=O)c4ccc(N5CCN(C)CC5)cc4)n[nH]c3c2)c1 [9y, N-(6–(3-fluoro-5-methoxyphenyl)-1H-indazol-3-yl)-4–(4-methylpiperazin-1-yl)benzamide] | – | –
> 1000 | > 5000 | 236.4 to 238.3 | – | – | COc1cc(-c2ccc3nc(NC(=O)c4ccc(N5CCN(C)CC5)cc4)sc3c2)cc(OC)c1OC [12c, 4–(4-methylpiperazin-1-yl)-N-(6–(3,4,5-trimethoxyphenyl)benzo[d]thiazol-2-yl)benzamide] | – | –
20.7 | 1050 | 224.8 to 227.4 | – | – | COc1cccc(-c2ccc3c(NC(=O)c4ccc(N5C[C@@H](C)N[C@@H](C)C5)cc4)n[nH]c3c2)c1 [9b, 4-((3R,5S)-3,5-dimethylpiperazin-1-yl)-N-(6–(3-methoxyphenyl)-1H-indazol-3-yl)benzamide] | – | –
> 1000 | – | 221.6 to 224.2 | – | > 5000 | CCN1CCN(c2ccc(C(=O)Nc3n[nH]c4cc(-c5ccn(C)n5)ccc34)cc2)CC1 [9t, 4–(4-ethylpiperazin-1-yl)-N-(6–(1-methyl-1H-pyrazol-3-yl)-1H-indazol-3-yl) benzamide] | – | –
28.2 | 843 | 224.8 to 227.4 | – | – | COc1cccc(-c2ccc3c(NC(=O)c4ccc(N5CCN(C)CC5)cc4)n[nH]c3c2)c1 [9c, N-(6–(3-methoxyphenyl)-1H-indazol-3-yl)-4–(4-methylpiperazin-1-yl)benzamide] | – | –
5.5 | – | 225.5 to 227 | – | 572 | CCN1CCN(c2ccc(C(=O)Nc3n[nH]c4cc(-c5cc(F)cc(OC)c5)ccc34)cc2)CC1 [9o, 4–(4-ethylpiperazin-1-yl)-N-(6–(3-fluoro-5-methoxyphenyl)-1H-indazol-3-yl)benzamide] | – | 1.4
> 1000 | – | – | – | > 5000 | CCN1CCN(c2ccc(C(=O)Nc3n[nH]c4cc(-c5cc(C(F)(F)F)cc(C(F)(F)F)c5)ccc34)cc2)CC1 [9j, N-(6–(3,5-bis(trifluoromethyl)phenyl)-1H-indazol-3-yl)-4–(4-ethylpiperazin-1-yl)benzamide] | – | –

Molecule | IC50 (FGFR1) [nM] | IC50 (SNU-16 cell; Homo sapiens, Table 1) [nM] | melting point [°C] | IC50 (SNU-16 cell; Homo sapiens, Table 3) [nM] | IC50 (SNU-16 cell; Homo sapiens, Table 2) [nM] | IC50 (SNU-16 cell; Table 1) [nM] | enhancement of the cellular inhibition (SNU-16 cell; 9o vs 9d, SNU-16) [fold]
CCC(C)Oc1cccc(-c2ccc3c(NC(=O)c4ccc(N5CCN(CC)CC5)cc4)n[nH]c3c2)c1 (stereo not drawn) [9g, N-(6–(3-(sec-butoxy)phenyl)-1H-indazol-3-yl)-4–(4-ethylpiperazin-1-yl)benzamide] | > 1000 | – | – | – | > 5000 | – | –
